In PMC12884720, “Gabpα‐Pparγ Complex Determines Glycolytic Capacity and Lactic Acid Homeostasis in Brown Fat” (Advanced Science, 2025):
No end group written: not given here. *: point of attachment. FITC = O=C1OC2(c3ccc(O)cc3Oc3cc(O)ccc32)c2ccc(NC(=S)*)cc21

T1: Pparγ protein (SPR ligand) (UniProt P37238 1-505)
T1 construct: May be the Cusabio His-Pparγ of the pull-down
T1 sequence (looked up): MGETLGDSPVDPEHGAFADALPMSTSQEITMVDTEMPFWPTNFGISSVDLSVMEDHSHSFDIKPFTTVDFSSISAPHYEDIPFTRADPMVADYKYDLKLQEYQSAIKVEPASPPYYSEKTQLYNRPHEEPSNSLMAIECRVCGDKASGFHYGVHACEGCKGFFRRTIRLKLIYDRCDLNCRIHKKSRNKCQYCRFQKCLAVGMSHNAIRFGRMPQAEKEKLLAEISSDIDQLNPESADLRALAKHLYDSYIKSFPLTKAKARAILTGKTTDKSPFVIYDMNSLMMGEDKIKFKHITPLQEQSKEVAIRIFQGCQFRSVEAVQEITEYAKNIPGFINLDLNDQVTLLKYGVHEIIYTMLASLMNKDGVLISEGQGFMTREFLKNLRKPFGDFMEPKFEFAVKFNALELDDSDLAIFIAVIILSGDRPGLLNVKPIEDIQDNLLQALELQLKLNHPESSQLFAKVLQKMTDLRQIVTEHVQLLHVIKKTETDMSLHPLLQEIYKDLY

B1: Gabpα protein (SPR analyte) (natural protein, UniProt Q00422 1-454, looked up)
chain: MTKREAEELIEIEIDGTEKAECTEESIVEQTYTPAECVSQAIDINEPIGNLKKLLEPRLQCSLDAHEICLQDIQLDPDRSLFDQGVKTDGTVQLSVQVISYQGMEPKLNILEIVKTAETVEVVIDPDAHHAEAEAHLVEEAQVITLDGTKHITTISDETSEQVTRWAAALEGYRKEQERLGIPYDPIHWSTDQVLHWVVWVMKEFSMTDIDLTTLNISGRELCSLNQEDFFQRVPRGEILWSHLELLRKYVLASQEQQMNEIVTIDQPVQIIPASVPPATPTTIKVINSSAKAAKVQRSPRISGEDRSSPGNRTGNNGQIQLWQFLLELLTDKDARDCISWVGDEGEFKLNQPELVAQKWGQRKNKPTMNYEKLSRALRYYYDGDMICKVQGKRFVYKFVCDLKTLIGYSAAELNRLVIECEQKKLARMQLHGIAQPVTAVALAATSLQADKEI
notes: May be the Cusabio GST-Gabpα of the pull-down
B2: Gabpα-Pparγ complex binding inhibitor (GPCBi) (peptide)
peptide: {FITC}-YGRKKRRQRRRRRTIRLKLIYDRCDLNCRIHKKSRNK
modifications: cysteine pairing not given here
notes: the numbers fit the 505-residue Pparγ2; also called FITC-GPCBi; peptide GPCBi; source: synthetic peptide

Assays:
[1] = system: differentiated iBAT‐SVF cells; test: Relative mRNA and protein levels in differentiated iBAT-SVF cells; assay type: cell-based, C57BL/6 mice; details: GPCBi 5 µM, first 2 days of differentiation, and Enoblock 10 µM for 24 h (Figure 5p)
Procedure: Interscapular BAT‐SVF cells were obtained from eight‐week‐old male C57BL/6 mice. […] The tissue homogenates were filtered through a 70 µm cell strainer and centrifuged at 1000 rpm for 5 min. The cell pellet was resuspended in DMEM supplemented with 10% FBS (Sigma–Aldrich) and 1% penicillin/streptomycin (P/S) at 37 °C with 5% CO2. The next day, BAT‐SVF cells were immortalized with the SV40 large T antigen according to a published protocol.^[ [32] ^] […] After 48 h, the induction medium was replaced with a maintenance cocktail (5 µg mL^−1 insulin, 1 nM triiodo‐L‐thyronine, and 1 µM rosiglitazone) until 6 to 8 days after the induction of differentiation.
Reverse transcription of cDNA was completed via the use of 1 µg of RNA with HiScript II Q RT SuperMix for real‐time quantitative PCR (qPCR) (Vazyme Biotech, Nanjing, China, Cat# R222) according to the provided protocols. qPCR was performed with a real‐time PCR system on a QuantStudio1 (Applied Biosystems) using Taq Pro Universal SYBR qPCR Master Mix (Vazyme Biotech., Nanjing, China, Cat# Q712‐02). Relative transcript levels were calculated via the comparative C T method; 36b4 was used as the internal control for cells, whereas Hprt was used as the internal control for tissues. The primer sequences are listed in Table S1 (Supporting Information). The mRNAs from the BAT of control and Gabpα ^Ucp1 KO mice were extracted and subjected to commercial RNA‐seq (BGI Genomics Co., Ltd.) for further DEG and KEGG pathway enrichment analysis. In detail, RNA quality was examined with Fragment (Agilent). High‐quality RNA (RIN > 8.0) was used to library construction. RNA‐seq was performed at BGI Genomics (China) using the Illumina NovaSeq 6000 platform. Clean reads were aligned to the mouse reference genome (GRCm39) using Bowtie2, and transcript quantification was performed with RSEM. […] The RNA‐seq data generated in this study have been deposited in the National Center for Biotechnology Information Sequence Read Archive database under accession code PRJNA1358056.
Cells and tissues were lysed in RIPA lysis buffer (Beyotime, Shanghai, China, Cat# P0013B) containing a protease inhibitor cocktail (MedChem Express, NJ, USA, Cat# HY‐K0010) according to the manufacturer's protocol. Equal amounts of protein were separated on SDS‒PAGE gels and transferred to PVDF membranes (Millipore). The PVDF membranes were blocked in 5% skim milk for 1 h at room temperature and then incubated with primary antibody overnight at 4 °C. The membranes were washed three times with TBST and then incubated with HRP‐conjugated secondary antibodies for 1 h at room temperature. After washing three times, the Western blots were imaged via an enhanced chemiluminescence system.

[2] = system: differentiated iBAT‐SVF cells; test: Lactate levels in differentiated iBAT-SVF cells; assay type: cell-based, C57BL/6 mice; details: GPCBi 5 µM, first 2 days of differentiation, and Enoblock 10 µM for 24 h (Figure 5o)
Procedure: (§1) Interscapular BAT‐SVF cells were obtained from eight‐week‐old male C57BL/6 mice. Briefly, BAT was excised, washed in PBS, minced, and digested at 37 °C for 40 min in Hanks solution containing type II collagenase (Sigma, Cat# C‐6885) and 4% bovine serum albumin (BSA). The tissue homogenates were filtered through a 70 µm cell strainer and centrifuged at 1000 rpm for 5 min. The cell pellet was resuspended in DMEM supplemented with 10% FBS (Sigma–Aldrich) and 1% penicillin/streptomycin (P/S) at 37 °C with 5% CO2. The next day, BAT‐SVF cells were immortalized with the SV40 large T antigen according to a published protocol.^[ [32] ^] For iBAT‐SVF cell differentiation, confluent SVF cells were induced to differentiate with medium containing 0.5 mM isobutylmethylxanthine (Sigma, Cat# I‐5879), 125 µM indomethacin (Sigma, Cat# I‐7378), 2 µg mL^−1 dexamethasone (Sigma, Cat# D‐1756), 5 µg mL^−1 insulin (Solarbio, Cat# I‐8040), 1 nM triiodo‐L‐thyronine (Sigma, Cat# T‐2877), and 1 µM rosiglitazone (Cayman, Cat# 71740‐100). After 48 h, the induction medium was replaced with a maintenance cocktail (5 µg mL^−1 insulin, 1 nM triiodo‐L‐thyronine, and 1 µM rosiglitazone) until 6 to 8 days after the induction of differentiation.
Brown fat was homogenized with lysis buffer, ultrasonographically treated on ice at 300 W (on for 3 s, off for 7 s) for 2 min, and then centrifuged at 4 °C at 12 000 × g for 10 min. […] All protocols were followed in accordance with the manufacturer's guidelines.

Eno1 promoter = test: Luciferase reporter assay, Eno1-Luc activated by Gabpα and Pparγ/Rxrα; assay type: cell-based, human; details: HEK293T cells, T0070907 10 µM, n = 3 (Figure 3o)
Procedure: HEK293T cells were transfected with 100 ng of Pparγ and 100 ng of Rxrα or empty vector together with 100 ng of Gabpα plasmid or the C‐terminal truncation mutants and 200 ng of Eno1 luciferase reporter plasmid in 24‐well plates via Lipofectamine reagent (Yeasen, Shanghai, China, Cat# 40802ES03). For the experiments with the peptides GPCBi or T0070907, the additional peptides GPCBi (3 µM) or T0070907 (10 µM) were added to the HEK293T cells one day after the plasmid complex was transfected. After 48 h of transfection, luciferase activity was measured via the Dual‐Luciferase Reporter Assay System (Vazyme Biotech., Nanjing, China; Cat# DL101‐01). Firefly luciferase reporter gene measurements were normalized to Renilla luciferase activity.

BAT from wild‐type mice = test: H&E staining and Ucp1 immunostaining of BAT; assay type: in vivo, wild‐type C57BL/6J mice; details: GPCBi 5.5 mg kg^−1 in BAT for 7 days, then sodium lactate 2 g kg^−1 d^−1 i.p. daily for 3 days following 10 °C for 2 days; Ucp1 immunostaining (Figure 5g-i)
Procedure: The mouse experiments were approved by the Institutional Animal Care and Use Committee of the Institute of Model Animals of Tongji Hospital, Huazhong University of Science and Technology, and were performed in compliance with all relevant ethical regulations (approval number: TJH‐202110044). Unless otherwise noted, the mice were housed in a pathogen‐free and climate‐controlled environment (22–25 °C, 40‐60% humidity) and were given free access to food and water on a 12 h light/dark cycle. Wild‐type C57BL/6J mice were obtained from Beijing Huafukang Bioscience Co., Ltd. (Beijing, China). Gabpa ^flox/flox , Adipoq^Cre , and Ucp1^Cre mice were purchased from Cyagen Biosciences, Inc. (Guangzhou, China). For GPCBi treatment, wild‐type mice were orthotopically injected GPCBi (FITC‐[…]; 5.5 mg kg^−1) or scramble peptide (FITC‐[…]; 5.5 mg kg^−1) into the BAT at room temperature for one week. […] For cold exposure, the mice were caged individually and exposed to a temperature of 10 or 4 °C. The mice were euthanized by CO2 inhalation. For studies with specific diets, five‐week‐old male Gabpα ^Adipo KI mice and their respective littermate control mice were fed a HFD (D12492, Research Diets; 60 kcal% fat, 20 kcal% carbohydrates, and 20 kcal% protein; Medicience Ltd., Jiangsu, China) at ambient temperature. The food was changed every week. Body weight was measured every week, and tissue weights were measured at the time of euthanasia.
For haematoxylin and eosin (H&E) staining, adipose tissues and the liver were fixed in 4% paraformaldehyde overnight at 4 °C and then dehydrated in 70% ethanol. The tissues were subsequently embedded in paraffin, sectioned at a thickness of 5 µm, and stained with H&E or immunostained with a Ucp1 antibody (Abcam, UK, Cat# ab234430, 1:500 dilution) following the standard protocol. For Oil Red O staining, frozen liver sections were stained with Oil Red O solution for 10 min and then counterstained with haematoxylin for 20 s. Images of the tissue samples were captured via an Olympus BX53 Orthomicroscope. […]

iBAT‐SVF cells = test: Immunofluorescence, nuclear localization of FITC-GPCBi in iBAT-SVF cells; assay type: cell-based, C57BL/6 mice; details: FITC‐GPCBi 5 µM, first 2 days of adipogenic differentiation; DAPI (Figure 4d)
Procedure: as §1, with “After 48 h, the induction medium was replaced with a maintenance cocktail (5 µg mL^−1 insulin, 1 nM triiodo‐L‐thyronine, and 1 µM rosiglitazone) until 6 to 8 days after the induction of differentiation.” left out
Differentiated iBAT‐SVF cells were fixed with 4% paraformaldehyde for 20 min at room temperature and then rinsed three times with PBS. […] The cells were subsequently washed three times with PBS and incubated with a fluorescence‐conjugated secondary antibody (ABclonal, Wuhan, China, Cat# AS053; AS008, 1:200 dilution) for 1 h at room temperature. […]

[3] = molecular target: T1, Pparγ protein (SPR ligand); test: SPR; Biacore T200, CM5 chip; Pparγ immobilised covalently; different concentrations of Gabpα injected; 120 s association, 200 s dissociation; details: both partners purified
[4] = molecular target: B1; test: not stated; direct binding of GPCBi to Gabpα, dose-dependent (Figure S4d); method and who was immobilised not told; details: both partners purified

NCCOCCOCCNC(=O)Cc1ccc(Nc2nc(NCc3ccc(F)cc3)nc(NCC3CCCCC3)n2)cc1 [Enoblock, reference compound]
ucp1 expression when Enoblock further added to GPCBi-treated brown adipocytes [1]: no change
GPCBi-induced reduction of lactate level in presence of Enoblock [2]: not observed

O=C(Nc1ccncc1)c1cc([N+](=O)[O-])ccc1Cl [T0070907, reference compound]
Eno1 promoter activity induced by Gabpα (Eno1 promoter): inhibited

CC(O)C(=O)[O-].[Na+] (stereo not shown) [lactate, sodium lactate, reference compound]
Ucp1 expression suppressed by GPCBi (rescue) (BAT from wild‐type mice): rescued

FITC‐tagged GPCBi: FITC‐tagged GPCBi ({FITC}-YGRKKRRQRRRRRTIRLKLIYDRCDLNCRIHKKSRNK; cysteine pairing not given here)
cellular localization (iBAT‐SVF cells): nuclear localization

B1
Kd [3]: 5.34 nM

B2
Kd [4]: 7.03 nM
